The numbers were not newly measured in patent US20130001095A1, “METHOD OF PRODUCING COUPLED RADICAL PRODUCTS” (priority 2009, published 2013), which cites them from elsewhere.

Molecules are shown by their SMILES.

For `O=C([O-])CCCC(=O)[O-].[Na+].[Na+]` [Sodium glutarate], the solubility in methanol result (methanol) is given as “not soluble”. In addition, the solubility in water entry (water) is “soluble”.
